Where a SMILES comes first, the peptide text is derived from it. Bridges are numbered along the chain shown (N, C = ends). [ ]: non-standard residue; d: D form. The star is where a group is joined. hPhe(3-Cl-4-CF3) = N[C@@H](CCc1ccc(C(F)(F)F)c(Cl)c1)C(=O)O; NPrPhe(4-CF3) = CCCN[C@@H](Cc1ccc(C(F)(F)F)cc1)C(=O)O; NMeGly(cPent) = CN[C@H](C(=O)O)C1CCCC1; NMeD = CN[C@@H](CC(=O)O)C(=O)O; NMeL = CN[C@@H](CC(C)C)C(=O)O; Morpholide = C1CN(*)CCO1; Ac5c = NC1(C(=O)O)CCCC1; Aze = O=C(O)[C@@H]1CCN1; Sar = CNCC(=O)O
Key:
[1] = target: HRAS wild-type protein (Homo sapiens, UniProt P01112); assay: Binding to HRAS by surface plasmon resonance (SPR), KD and KD ratio to KRAS
HRAS wild-type protein, sequence (P01112 whole entry): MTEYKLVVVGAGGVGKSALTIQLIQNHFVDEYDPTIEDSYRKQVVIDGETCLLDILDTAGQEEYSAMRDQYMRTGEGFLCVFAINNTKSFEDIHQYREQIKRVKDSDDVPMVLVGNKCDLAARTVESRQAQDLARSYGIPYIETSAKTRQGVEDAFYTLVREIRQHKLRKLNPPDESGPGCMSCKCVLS
Summary of the method: (§1)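 Running buffer contained 10 µM GDP and 10 mM MgCl2 to keep RAS in the GDP state, with 4% DMSO at pH 7.4. Compounds were flowed at 100 µL/min in 75 s steps of rising concentration over captured biotin-Avi RAS at 30°C. Sensorgrams were fitted 1:1 for KD.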

[2] = target: GDP-bound NRAS wild-type protein (Homo sapiens, UniProt P01111); assay: Binding to NRAS by surface plasmon resonance (SPR), KD and KD ratio to KRAS
GDP-bound NRAS wild-type protein, sequence (P01111 whole entry): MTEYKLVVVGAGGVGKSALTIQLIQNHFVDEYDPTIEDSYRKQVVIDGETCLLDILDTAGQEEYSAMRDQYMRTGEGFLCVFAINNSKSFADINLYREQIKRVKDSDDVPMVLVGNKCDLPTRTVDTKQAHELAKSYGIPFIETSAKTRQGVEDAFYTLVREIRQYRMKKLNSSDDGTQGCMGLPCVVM
Summary of the method: as §1

[3] = target: GDP-bound KRAS wild-type protein (Homo sapiens, UniProt P01116); assay: Binding to KRAS by surface plasmon resonance (SPR), dissociation constant KD
GDP-bound KRAS wild-type protein, sequence (P01116 1-188 isoform P01116-2): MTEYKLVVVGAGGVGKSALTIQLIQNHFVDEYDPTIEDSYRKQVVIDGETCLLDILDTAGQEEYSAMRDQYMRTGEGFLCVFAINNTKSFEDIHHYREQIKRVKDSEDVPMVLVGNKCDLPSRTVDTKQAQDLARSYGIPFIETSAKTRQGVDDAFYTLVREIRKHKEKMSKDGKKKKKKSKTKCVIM
Summary of the method: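 GDP-bound biotin-Avi RAS captured at ~100–300 RU, 30°C, pH 7.4 HBS containing 10 µM GDP, 10 mM MgCl2, 1 mM DTT, 0.01% Tween 20 and 4% DMSO. KD by 1:1 fitting.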

[4] = test system: human lung cancer strain NCI-H441; type: cell-based
Summary of the method: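 Step one: dispense the test compound in serial DMSO dilutions. Step three: add the reagent and measure […].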

[5] = ratio of the KD value with respect to HRAS wild-type protein to the KD value with respect to KRAS
[6] = ratio of the KD value with respect to GDP-bound NRAS wild-type protein to the KD value with respect to KRAS
[7] = Single Cycle Kinetics, 1:1 binding model
[8] = ratio of KD for HRAS wild-type protein to KD for KRAS
[9] = ratio of KD for GDP-bound NRAS wild-type protein to KD for KRAS
[10] = ratio of KD value for HRAS wild-type protein to KD value for KRAS (SPR)
[11] = ratio of KD value for GDP-bound NRAS wild-type protein to KD value for KRAS (SPR)

Compound	HRAS /KRAS [1, 5]	NRAS /KRAS [2, 6]	Kd [3, 7] [nM]	IC50 [4] [nM]	HRAS /KRAS [1, 8]	NRAS /KRAS [2, 9]	Kd ([3]; 1:1 binding model) [nM]	HRAS /KRAS [1, 10]	NRAS /KRAS [2, 11]	Kd ([3]; Single Cycle Kinetics) [nM]
CC[C@H](C)[C@@H]1NC(=O)[C@H](CC(C)C)N(C)C(=O)C[C@@H](C(=O)N2CCOCC2)N(C)C(=O)[C@H](C2CCC2)N(C)C(=O)C2(CCCC2)NC(=O)[C@@H]2CCCN2C(=O)[C@H](CCc2cc(F)c(C(F)(F)F)c(F)c2)NC(=O)CN(C)C(=O)[C@H](Cc2ccc(C(F)(F)F)cc2)N2CCCCC[C@@H](C2=O)N(C)C(=O)CN(C)C1=O [PP0504]	B (a compound having 3 or more and less than 10 is denoted as B)	B (a compound having 3 or more and less than 10 is denoted as B)	14	235						
CCCN1C(=O)[C@@H]2CCN2C(=O)[C@@H]2CCN2C(=O)[C@H]([C@@H](C)CC)NC(=O)[C@H](CC(C)C)N(C)C(=O)C[C@@H](C(=O)N2CCOCC2)N(C)C(=O)[C@H](C2CCCC2)N(C)C(=O)C2(CCCC2)NC(=O)[C@@H]2CCCN2C(=O)[C@H](CCc2ccc(C(F)(F)F)c(Cl)c2)NC(=O)CN(C)C(=O)[C@@H]1Cc1ccc(C(F)(F)F)cc1 [PP0168] ([NMeL]I[Aze][Aze][NPrPhe(4-CF3)][Sar][hPhe(3-Cl-4-CF3)]P[Ac5c][NMeGly(cPent)][NMeD]-Morpholide; lactam N-11)				26.6	B (a compound having 3 or more and less than 10 is denoted as B)	C (A compound having a KD ratio of 0.1 or more and less than 3 is denoted as C)	0.67			
CCOC[C@H]1C(=O)N[C@@H]([C@@H](C)CC)C(=O)N(C2CC2)CC(=O)N(C)[C@H]2C/C=C\CCN(C2=O)[C@@H](CC2CCC(F)(F)CC2)C(=O)N(C)CC(=O)N[C@@H](CCc2ccc(C(F)(F)F)c(OC)c2)C(=O)N2C[C@H](OCC)C[C@H]2C(=O)N(C)C2(CCC2)C(=O)N(C)[C@@H](C(CC)CC)C(=O)N(C)[C@H](C(=O)N(C)C)CC(=O)N1C [PP2351]	A (a compound having 10 or more and less than 20 is denoted as A)	A (a compound having 10 or more and less than 20 is denoted as A)	3.2	177						
CCCN(C)C(=O)[C@@H]1CC(=O)N(C)[C@@H](COCC)C(=O)N[C@@H]([C@@H](C)CC)C(=O)N(C)CC(=O)N(C)[C@H]2C/C=C\CCN(C2=O)[C@@H](Cc2ccc(C(F)(F)F)cc2)C(=O)N(C)CC(=O)N[C@@H](CCc2ccc(C(F)(F)F)c(OC)c2)C(=O)N2C[C@@H](C)C[C@H]2C(=O)NC2(CCC2)C(=O)N(C)[C@@H](C2CCCC2)C(=O)N1C [PP2025]	B (a compound having 3 or more and less than 10 is denoted as B)	A (a compound having 10 or more and less than 20 is denoted as A)	0.061	13.4						
CCO[C@@H]1C[C@H]2C(=O)NC3(CC(C)(C)C3)C(=O)N(C)[C@@H](C3CCCC3)C(=O)N(C)[C@H](C(=O)N(C)CC)CC(=O)N(C)[C@@H](CC(C)C)C(=O)N[C@@H]([C@@H](C)CC)C(=O)N(C)CC(=O)N(C)[C@H]3C/C=C\CCN(C3=O)[C@@H](Cc3ccc(C(F)F)cc3)C(=O)N(C)CC(=O)N[C@@H](CCc3cc(F)c(Cl)c(OC)c3)C(=O)N2C1 [PP3142]				39.3	A (a compound having 10 or more and less than 20 is denoted as A)	A (a compound having 10 or more and less than 20 is denoted as A)	0.44			
CCC[C@H]1C(=O)N[C@@H](C2CCOCC2)C(=O)N(C)CC(=O)N(C)[C@H]2C/C=C\CCN(C2=O)[C@@H](Cc2ccc(C)cc2)C(=O)N(C)CC(=O)N[C@@H](CCc2ccc(C(F)(F)F)c(Cl)c2)C(=O)N2C[C@H](OCC)C[C@H]2C(=O)NC2(CC(C)(C)C2)C(=O)N(C)[C@@H](CC(C)(C)C)C(=O)N(C)[C@H](C(=O)N(C)C)CC(=O)N1C [PP3026]				53.6	A (a compound having 10 or more and less than 20 is denoted as A)	A (a compound having 10 or more and less than 20 is denoted as A)	0.66			
CCC[C@H]1C(=O)N[C@@H]([C@@H](C)CC)C(=O)N(CCC)CC(=O)N(C)[C@H]2C/C=C\CCN(C2=O)[C@@H](Cc2ccc(C)cc2)C(=O)N(C)CC(=O)N[C@@H](CCc2cc(F)c(C(F)(F)F)c(F)c2)C(=O)N2C[C@H](OCC)C[C@H]2C(=O)NC2(CC(C)(C)C2)C(=O)N(C)[C@@H](C2CCCC2)C(=O)N(C)[C@H](C(=O)N(C)C)CC(=O)N1C [PP2108]	A (a compound having 10 or more and less than 20 is denoted as A)	A (a compound having 10 or more and less than 20 is denoted as A)	0.34	17.6						
CCC[C@H]1C(=O)N[C@@H]([C@@H](C)CC)C(=O)N(C)CC(=O)N(C)[C@H]2C/C=C\CCN(C2=O)[C@@H](Cc2ccc(C)cc2)C(=O)N(C)CC(=O)N[C@@H](CCc2cc(F)c(C(F)(F)F)c(F)c2)C(=O)N2C[C@@H](C)C[C@H]2C(=O)NC2(CCC2)C(=O)N(C)[C@@H](C2CCCC2)C(=O)N(C)[C@H](C(=O)N(C)CC)CC(=O)N1C [PP1860]			0.11	10.3				A (a compound having 10 or more and less than 20 is denoted as A)	A (a compound having 10 or more and less than 20 is denoted as A)	
CCCN(C)C(=O)[C@@H]1CC(=O)N(C)[C@@H](CCOC)C(=O)N[C@@H]([C@@H](C)CC)C(=O)N(C)CC(=O)N(C)[C@H]2C/C=C\CCN(C2=O)[C@@H](Cc2ccc(C(F)(F)F)cc2)C(=O)N(C)CC(=O)N[C@@H](CCc2ccc(C(F)(F)F)c(OC)c2)C(=O)N2C[C@@H](C)C[C@H]2C(=O)NC2(CCC2)C(=O)N(C)[C@@H](C2CCCC2)C(=O)N1C [PP2029]	B (a compound having 3 or more and less than 10 is denoted as B)	A (a compound having 10 or more and less than 20 is denoted as A)	0.069	18.9						
CCCOC[C@H]1C(=O)N[C@@H]([C@@H](C)CC)C(=O)N(C2CC2)CC(=O)N(C)[C@H]2C/C=C\CCN(C2=O)[C@@H](Cc2ccc(C(F)(F)F)cc2)C(=O)N(C)CC(=O)N[C@@H](CCc2ccc(C(F)(F)F)c(OC)c2)C(=O)N2C[C@H](OCC)C[C@H]2C(=O)N(C)C2(CCC2)C(=O)N(C)[C@@H](C2CCCC2)C(=O)N(C)[C@H](C(=O)N(C)C)CC(=O)N1C [PP2318]	A (a compound having 10 or more and less than 20 is denoted as A)	A (a compound having 10 or more and less than 20 is denoted as A)	0.12	3.3						
CCO[C@@H]1C[C@H]2C(=O)NC3(CCC3)C(=O)N(C)[C@@H](C3CCCC3)C(=O)N(C)[C@H](C(=O)N(C)C)CC(=O)N(C)[C@@H](CC)C(=O)N[C@@H]([C@@H](C)CC)C(=O)N(C)CC(=O)N(C)[C@H]3CCCCCN(C3=O)[C@@H](Cc3ccc4ccsc4c3)C(=O)N(C)CC(=O)N[C@@H](CCc3cc(F)c(C(F)(F)F)c(F)c3)C(=O)N2C1 [PP0910]				66.2	B (a compound having 3 or more and less than 10 is denoted as B)	B (a compound having 3 or more and less than 10 is denoted as B)				0.62
CCO[C@@H]1C[C@H]2C(=O)NC3(CCC3)C(=O)N(C)[C@@H](C3CCCC3)C(=O)N(C)[C@H](C(=O)N(C)CC)CC(=O)N(C)[C@@H](CC3CCCC3)C(=O)N[C@@H]([C@@H](C)CC)C(=O)N(C)CC(=O)N(C)[C@H]3C/C=C\CCN(C3=O)[C@@H](Cc3ccc(C(F)(F)F)cc3)C(=O)N(C)CC(=O)N[C@@H](CCc3ccc(C(F)(F)F)c(OC)c3)C(=O)N2C1 [PP1573]			0.12	5.2				A (a compound having 10 or more and less than 20 is denoted as A)	A (a compound having 10 or more and less than 20 is denoted as A)	

From patent EP4603105A1, “PHARMACEUTICAL COMPOSITION CONTAINING CYCLIC COMPOUND HAVING SELECTIVE KRAS INHIBITORY EFFECT AGAINST HRAS AND NRAS” (CHUGAI SEIYAKU KABUSHIKI KAISHA, priority 2022, dated 2024)
